Assay results reported in patent publication US11452725B2, “Chiral diaryl macrocycles and uses thereof” (TURNING POINT THERAPEUTICS, INC., priority 2015, dated 2022).
pIC50, pKd: −log10 of the molar value.

Tests used:
DDR1 = target: T1, DDR1 (Homo sapiens, UniProt Q08345); assay: Biochemical kinase assay (Reaction Biology); settings: 10 μM ATP
T1 construct: purchased Reaction Biology Corporation
Experimental: (§4) Specific kinase/substrate pairs along with required cofactors were prepared in reaction buffer; 20 mM Hepes pH 7.5, 10 mM MgCl2, 1 mM EGTA, 0.02% Brij35, 0.02 mg/ml BSA, 0.1 mM Na3VO4, 2 mM DTT, 1% DMSO (for specific details of individual kinase reaction components see Supplementary Table 2). Compounds were delivered into the reaction, followed ˜20 minutes later by addition of a mixture of ATP (Sigma, St. Louis Mo.) and ^33P ATP (Perkin Elmer, Waltham Mass.) to a final concentration of 10 μM. Reactions were carried out at room temperature for 120 min, followed by spotting of the reactions onto P81 ion exchange filter paper (Whatman Inc., Piscataway, N.J.). […] IC50 values and curve fits were obtained using Prism (GraphPad Software).

SNARK = target: T2, SNARK (Homo sapiens, UniProt Q9H093); assay: Biochemical kinase assay (Reaction Biology); settings: 10 μM ATP
T2 construct: purchased Reaction Biology Corporation
Experimental: as §4

NCI-H2228 cell line = assay: Cell proliferation assay (CellTiter-Glo); type: cell-based; settings: Homo sapiens, 72 hours, EML4-ALK fusion gene
Experimental: Two thousand cells per well were seeded in 384 well white plate for 24 hrs, and then treated with compounds for 72 hours (37° C., 5% CO2). Cell proliferation was measured using CellTiter-Glo luciferase-based ATP detection assay (Promega) following the manufactures's protocol. IC50 determinations were performed using GraphPad Prism software (GraphPad, Inc., San Diego, Calif.).

BTK = target: T3, BTK (Homo sapiens, UniProt Q06187); assay: Biochemical kinase assay (Reaction Biology); settings: 10 μM ATP
T3 construct: purchased Reaction Biology Corporation (contract assay)
Experimental: as §4

[1] = tested on: NIH3T3 SDC4-ROS1 WT tumors; assay: NIH3T3 SDC4-ROS1 WT subcutaneous xenograft model; type: in vivo, athymic nude mice; settings: 26 days
Experimental: (§1) Female athymic nude mice and SCID/Beige mice (5-8 weeks of age) were obtained from Charles River Laboratory and were housed in Innovive IVC disposable cages on HEPA filtered ventilated racks with ad libitum access to rodent chow and water. Five million cells in 100 μL, serum-free medium were implanted subcutaneously in the right flank region of the mouse. Karpas299 cells were implanted into the SCID/Beige mice. KM12 cells, NIH3T3 EML4-ALK wild type mutant cells, and NIH3T3 SCD4-ROS1 wild type mutant cells were implanted into the athymic nude mice, respectively. All models except KM12 were implanted with 50% matrigel (Corning, Inc) in the medium. Tumor size and body weight were measured on designated days. Tumor size was measured with an electronic caliper and tumor volume was calculated as the product of length*width^2*0.5.
The SDC4-ROS1 fusion gene is considered as the driver for tumor progression in NSCLC. […] The control group of mice were given vehicle only. Tumor volume was measured by caliper on the indicated days and is shown at mean±sem in FIG. 9.

[2] = tested on: Ba/F3 EML4-ALK L1152P cell line; assay: Cell proliferation assay (CellTiter-Glo); type: cell-based; settings: Mus musculus, 72 hours
[3] = tested on: Ba/F3 TEL-TRKB (ETV6-TRKB) G639R cell line; assay: Cell proliferation assay (CellTiter-Glo); type: cell-based; settings: Mus musculus, BaF3; 72 hours
[4] = tested on: Ba/F3 EML4-ALK wild type cell line; assay: Cell proliferation assay (CellTiter-Glo); type: cell-based; settings: Mus musculus, 72 hours
[5] = tested on: Ba/F3 TPR-ALK L1196M cell line; assay: Cell proliferation assay at Advanced Cellular Dynamics (CellTiter-Glo); type: cell-based; settings: Mus musculus, BaF3, 48 hours
TNK2 = target: T4, TNK2 (Homo sapiens, UniProt Q07912); assay: Biochemical kinase assay (Reaction Biology); settings: 10 μM ATP
T4 construct: purchased Reaction Biology Corporation (contract assay)
Experimental: as §4

JAK3 = target: T5, JAK3 (Homo sapiens, UniProt P52333); assay: Biochemical kinase assay (Reaction Biology); settings: 10 μM ATP
T5 construct: purchased Reaction Biology Corporation (contract assay)
Experimental: as §4

ARK5 [6] = target: T6, ARK5 (Homo sapiens, UniProt O60285); assay: Biochemical kinase assay (Reaction Biology); settings: 10 μM ATP
Experimental: as §4

LCK = target: T7, LCK (Homo sapiens, UniProt P06239); assay: Biochemical kinase assay (Reaction Biology); settings: 10 μM ATP
T7 construct: purchased Reaction Biology Corporation (contract assay)
Experimental: as §4

[7] = tested on: Ba/F3 TPR-ALK wild type cell line; assay: Cell proliferation assay at Advanced Cellular Dynamics (CellTiter-Glo); type: cell-based; settings: Mus musculus, BaF3, 48 hours
[8] = tested on: Ba/F3 CD74-ROS1 G2032R tumors; assay: Ba/F3 CD74-ROS1 G2032R subcutaneous xenograft model; type: in vivo, SCID/Beige mice; settings: 11 days
Experimental: Female athymic nude mice and SCID/Beige mice (5-8 weeks of age) were obtained from Charles River Laboratory and were housed in Innovive IVC disposable cages on HEPA filtered ventilated racks with ad libitum access to rodent chow and water. Five million cells in 100 μL serum-free medium were implanted subcutaneously in the right flank region of the mouse. […] All models were implanted with 50% matrigel (Corning, Inc) in the medium. Tumor size and body weight were measured on designated days. Tumor size was measured with an electronic caliper and tumor volume was calculated as the product of length*width^2*0.5.

LTK = target: T8, LTK (Homo sapiens, UniProt P29376); assay: Biochemical kinase assay (Reaction Biology); settings: 10 μM ATP
T8 construct: purchased Reaction Biology Corporation (contract assay)
Experimental: as §4

GRK7 = target: T9, GRK7 (Homo sapiens, UniProt Q8WTQ7); assay: Biochemical kinase assay (Reaction Biology); settings: 10 μM ATP
T9 construct: purchased Reaction Biology Corporation (contract assay)
Experimental: as §4

FAK = FAK (Homo sapiens, UniProt Q05397); assay: KINOMEscan kinase binding assay (DiscoveRx)
Experimental: (§2) Kinase binding assays were performed at DiscoveRx using the general KINOMEscan Kd Protocol (Fabian, M. A. et al., “A small molecule-kinase interaction map for clinical kinase inhibitors,” Nat. Biotechnol. 2005, 23(3):329-36). For most assays, kinase-tagged T7 phage strains were prepared in an E. coli host derived from the BL21 strain. E. coli were grown to log-phase and infected with T7 phage and incubated with shaking at 32° C. until lysis. The lysates were centrifuged and filtered to remove cell debris. The remaining kinases were produced in HEK-293 cells and subsequently tagged with DNA for qPCR detection. […] The liganded beads were blocked with excess biotin and washed with blocking buffer (SeaBlock (Pierce), 1% BSA, 0.05% Tween 20, 1 mM DTT) to remove unbound ligand and to reduce nonspecific binding. […] All reactions were performed in polystyrene 96-well plates in a final volume of 0.135 mL. […] The kinase concentration in the eluates was measured by qPCR.
(§3) Binding constants (Kds) were calculated with a standard dose-response curve using the Hill equation: Response=Background+(Signal−Background)/(1+(Kd^Hill Slope/Dose^Hill Slope)) The Hill Slope was set to −1. Curves were fitted using a non-linear least square fit with the Levenberg-Marquardt algorithm.

ARK5 [9] = target: T6, ARK5; assay: KINOMEscan kinase binding assay (DiscoveRx)
Experimental: as §2, §3

[10] = Body weight of mice in xenograft studies; type: in vivo
Experimental: as §1
Female athymic nude mice and SCID/Beige mice (5-8 weeks of age) were obtained from Charles River Laboratory and were housed in Innovive IVC disposable cages on HEPA filtered ventilated racks with ad libitum access to rodent chow and water. Five million cells in 100 μL serum-free medium were implanted subcutaneously in the right flank region of the mouse. Ba/F3 EML4-ALK wild type and G1202R mutant cells, Ba/F3 CD74-ROS1 wild type and G2032R mutant cells were implanted into the SCID/Beige mice. NIH3T3 CD74-ROS1 G2032 mutant cells, NIH3T3 LMNA-TRKA wild type and G595R mutant cells were implanted into the athymic nude mice, respectively. All models were implanted with 50% matrigel (Corning, Inc) in the medium. Tumor size and body weight were measured on designated days. Tumor size was measured with an electronic caliper and tumor volume was calculated as the product of length*width^2*0.5.

[11] = tested on: Ba/F3 EML4-ALK C1156Y cell line; assay: Cell proliferation assay (CellTiter-Glo); type: cell-based; settings: Mus musculus, 72 hours

T6 sequence (O60285 whole entry): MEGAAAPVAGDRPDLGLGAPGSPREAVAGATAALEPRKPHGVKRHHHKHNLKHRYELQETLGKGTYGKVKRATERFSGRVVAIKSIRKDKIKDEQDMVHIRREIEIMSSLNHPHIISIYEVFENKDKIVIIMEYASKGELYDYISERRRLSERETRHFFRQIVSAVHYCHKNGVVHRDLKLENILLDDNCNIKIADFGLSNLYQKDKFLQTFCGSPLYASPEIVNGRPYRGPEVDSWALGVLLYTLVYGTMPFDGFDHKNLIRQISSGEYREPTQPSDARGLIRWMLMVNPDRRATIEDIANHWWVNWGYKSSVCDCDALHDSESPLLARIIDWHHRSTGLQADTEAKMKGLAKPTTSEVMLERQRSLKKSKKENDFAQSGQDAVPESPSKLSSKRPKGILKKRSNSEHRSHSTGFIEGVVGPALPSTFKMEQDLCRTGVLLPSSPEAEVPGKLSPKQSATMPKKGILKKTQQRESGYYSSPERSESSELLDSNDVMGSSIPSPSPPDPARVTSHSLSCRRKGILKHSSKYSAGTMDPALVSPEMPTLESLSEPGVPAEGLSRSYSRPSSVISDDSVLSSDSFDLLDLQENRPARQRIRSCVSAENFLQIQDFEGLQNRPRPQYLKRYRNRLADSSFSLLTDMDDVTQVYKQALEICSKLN
T1 sequence (Q08345 19-913): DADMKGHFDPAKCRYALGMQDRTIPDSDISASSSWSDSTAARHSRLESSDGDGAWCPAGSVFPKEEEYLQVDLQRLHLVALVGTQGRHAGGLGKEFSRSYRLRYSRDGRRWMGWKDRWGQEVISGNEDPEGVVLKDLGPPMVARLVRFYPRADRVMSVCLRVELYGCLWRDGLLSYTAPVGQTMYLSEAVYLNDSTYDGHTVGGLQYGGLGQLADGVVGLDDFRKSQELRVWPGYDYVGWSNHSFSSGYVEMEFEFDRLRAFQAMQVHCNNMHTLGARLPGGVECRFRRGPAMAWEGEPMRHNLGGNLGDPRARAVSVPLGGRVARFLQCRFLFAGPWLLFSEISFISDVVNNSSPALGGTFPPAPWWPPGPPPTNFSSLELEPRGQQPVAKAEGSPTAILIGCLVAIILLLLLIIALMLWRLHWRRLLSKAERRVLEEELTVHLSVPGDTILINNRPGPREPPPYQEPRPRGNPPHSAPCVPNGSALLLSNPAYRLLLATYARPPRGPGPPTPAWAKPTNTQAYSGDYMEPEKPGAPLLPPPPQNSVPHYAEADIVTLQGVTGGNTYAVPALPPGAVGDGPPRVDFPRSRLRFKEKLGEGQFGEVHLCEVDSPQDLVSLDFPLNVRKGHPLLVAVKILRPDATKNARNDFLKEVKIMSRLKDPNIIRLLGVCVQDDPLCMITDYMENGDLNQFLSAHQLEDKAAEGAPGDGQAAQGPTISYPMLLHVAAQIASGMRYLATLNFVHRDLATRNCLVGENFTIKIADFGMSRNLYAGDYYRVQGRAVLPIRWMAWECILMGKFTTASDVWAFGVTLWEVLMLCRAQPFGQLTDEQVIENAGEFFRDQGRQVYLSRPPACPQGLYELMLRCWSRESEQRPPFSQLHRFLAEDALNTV
T4 sequence (Q07912 whole entry): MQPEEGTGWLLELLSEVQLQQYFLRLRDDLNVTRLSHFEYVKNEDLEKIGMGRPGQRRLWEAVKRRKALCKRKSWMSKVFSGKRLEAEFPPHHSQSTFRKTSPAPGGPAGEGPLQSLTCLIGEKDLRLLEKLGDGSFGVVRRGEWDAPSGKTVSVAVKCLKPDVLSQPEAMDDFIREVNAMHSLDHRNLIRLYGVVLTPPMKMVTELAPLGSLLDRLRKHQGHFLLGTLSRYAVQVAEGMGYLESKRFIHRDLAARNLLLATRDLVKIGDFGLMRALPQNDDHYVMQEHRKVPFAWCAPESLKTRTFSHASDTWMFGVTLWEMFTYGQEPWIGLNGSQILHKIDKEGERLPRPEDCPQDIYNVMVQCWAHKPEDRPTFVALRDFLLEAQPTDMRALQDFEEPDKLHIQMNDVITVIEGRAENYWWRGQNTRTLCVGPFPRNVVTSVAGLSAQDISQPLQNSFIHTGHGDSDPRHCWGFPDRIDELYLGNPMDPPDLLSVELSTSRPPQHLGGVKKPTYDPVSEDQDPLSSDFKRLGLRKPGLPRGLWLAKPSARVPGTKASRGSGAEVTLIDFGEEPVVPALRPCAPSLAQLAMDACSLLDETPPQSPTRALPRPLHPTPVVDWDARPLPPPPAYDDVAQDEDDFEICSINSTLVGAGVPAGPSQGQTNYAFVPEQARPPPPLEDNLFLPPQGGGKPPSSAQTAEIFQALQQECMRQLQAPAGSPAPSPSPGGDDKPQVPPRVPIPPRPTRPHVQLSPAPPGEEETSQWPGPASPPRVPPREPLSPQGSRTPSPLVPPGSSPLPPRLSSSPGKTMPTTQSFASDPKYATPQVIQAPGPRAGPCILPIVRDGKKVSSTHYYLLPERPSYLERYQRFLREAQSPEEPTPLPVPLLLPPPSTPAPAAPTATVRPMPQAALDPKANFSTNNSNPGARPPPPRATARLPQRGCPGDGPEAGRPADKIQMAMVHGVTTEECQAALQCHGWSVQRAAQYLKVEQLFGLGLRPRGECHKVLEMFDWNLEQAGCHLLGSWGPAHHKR
T5 sequence (P52333 whole entry): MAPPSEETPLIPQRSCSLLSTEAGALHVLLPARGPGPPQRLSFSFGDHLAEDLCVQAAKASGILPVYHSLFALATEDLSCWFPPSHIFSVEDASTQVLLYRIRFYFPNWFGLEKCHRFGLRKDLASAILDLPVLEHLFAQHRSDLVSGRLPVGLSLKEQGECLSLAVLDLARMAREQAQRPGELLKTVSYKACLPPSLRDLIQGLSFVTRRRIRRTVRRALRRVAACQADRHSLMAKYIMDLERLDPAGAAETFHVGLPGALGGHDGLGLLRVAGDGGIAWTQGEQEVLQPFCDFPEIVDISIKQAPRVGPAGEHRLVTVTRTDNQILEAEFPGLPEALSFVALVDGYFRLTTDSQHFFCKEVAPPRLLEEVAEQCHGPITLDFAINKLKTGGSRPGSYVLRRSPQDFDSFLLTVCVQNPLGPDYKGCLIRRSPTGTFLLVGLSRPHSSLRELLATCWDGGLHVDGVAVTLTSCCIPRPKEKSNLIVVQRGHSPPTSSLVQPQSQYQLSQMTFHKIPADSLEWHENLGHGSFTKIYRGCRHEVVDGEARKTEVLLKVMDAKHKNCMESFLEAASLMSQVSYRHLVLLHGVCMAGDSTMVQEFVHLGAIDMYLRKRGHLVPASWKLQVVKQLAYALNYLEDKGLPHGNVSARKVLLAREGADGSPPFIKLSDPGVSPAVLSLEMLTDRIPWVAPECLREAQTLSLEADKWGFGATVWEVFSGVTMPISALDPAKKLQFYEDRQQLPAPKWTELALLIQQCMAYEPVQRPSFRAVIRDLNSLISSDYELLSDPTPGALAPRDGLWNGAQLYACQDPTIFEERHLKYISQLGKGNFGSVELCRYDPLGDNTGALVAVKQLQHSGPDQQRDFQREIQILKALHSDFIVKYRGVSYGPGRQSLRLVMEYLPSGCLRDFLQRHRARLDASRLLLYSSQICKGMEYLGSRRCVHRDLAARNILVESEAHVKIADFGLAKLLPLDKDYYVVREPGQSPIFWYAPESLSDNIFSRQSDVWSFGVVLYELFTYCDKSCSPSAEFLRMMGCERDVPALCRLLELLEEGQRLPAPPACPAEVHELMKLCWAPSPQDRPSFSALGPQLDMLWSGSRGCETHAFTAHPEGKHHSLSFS
FAK, sequence (Q05397 whole entry): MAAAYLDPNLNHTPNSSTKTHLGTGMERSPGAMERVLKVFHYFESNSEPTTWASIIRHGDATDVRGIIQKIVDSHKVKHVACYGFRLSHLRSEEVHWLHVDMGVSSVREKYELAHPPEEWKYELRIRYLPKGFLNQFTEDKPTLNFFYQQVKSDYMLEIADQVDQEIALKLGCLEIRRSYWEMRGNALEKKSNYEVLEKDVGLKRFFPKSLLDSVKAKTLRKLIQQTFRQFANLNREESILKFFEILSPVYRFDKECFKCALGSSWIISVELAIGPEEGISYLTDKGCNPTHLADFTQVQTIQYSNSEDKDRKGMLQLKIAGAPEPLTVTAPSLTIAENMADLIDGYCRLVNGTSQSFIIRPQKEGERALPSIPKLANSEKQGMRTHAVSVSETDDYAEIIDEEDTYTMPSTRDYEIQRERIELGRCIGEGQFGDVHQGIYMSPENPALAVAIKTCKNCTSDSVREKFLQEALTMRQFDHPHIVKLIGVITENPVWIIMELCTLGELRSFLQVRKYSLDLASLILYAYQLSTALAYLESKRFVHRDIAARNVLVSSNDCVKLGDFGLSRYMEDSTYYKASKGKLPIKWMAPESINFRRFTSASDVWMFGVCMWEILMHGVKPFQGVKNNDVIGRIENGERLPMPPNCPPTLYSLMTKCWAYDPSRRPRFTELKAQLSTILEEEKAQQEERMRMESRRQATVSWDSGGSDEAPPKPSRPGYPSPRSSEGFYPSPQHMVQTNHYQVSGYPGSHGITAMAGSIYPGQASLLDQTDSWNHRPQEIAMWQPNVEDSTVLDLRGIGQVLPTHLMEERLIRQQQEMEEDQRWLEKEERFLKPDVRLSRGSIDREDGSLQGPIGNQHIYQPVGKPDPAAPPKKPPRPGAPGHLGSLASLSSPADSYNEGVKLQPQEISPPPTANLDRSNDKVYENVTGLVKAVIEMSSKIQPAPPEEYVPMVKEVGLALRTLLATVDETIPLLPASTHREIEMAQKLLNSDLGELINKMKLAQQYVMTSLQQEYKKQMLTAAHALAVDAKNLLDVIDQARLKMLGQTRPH

C[C@H]1CNC(=O)c2cnn3ccc(nc23)N[C@H](C)c2cc(F)ccc2O1 [Compound 1, (7S,13R)-11-fluoro-7,13-dimethyl-6,7,13,14-tetrahydro-1,15-ethenopyrazolo[4,3-f][1,4,8,10]benzoxatriazacyclotridecin-4(5H)-one]
pIC50 (DDR1): 8.24
pIC50 (SNARK): 7.89
pIC50 (NCI-H2228 cell line): 7.14
pIC50 (BTK): 7.63
mice exhibiting tumor regression ([1]; 15 mg/kg BID orally): 7 of 8
tumor regression (REG) ([1]; 15 mg/kg BID orally): 39%
mice exhibiting tumor regression ([1]; 50 mg/kg BID orally): 7 of 7
tumor regression (REG) ([1]; 50 mg/kg BID orally): 69%
pIC50 [2]: 7.07
pIC50 [3]: 9.22
pIC50 [4]: 7.75
pIC50 [5]: 7.87
pIC50 (TNK2): 7.62
pIC50 (JAK3): 7.30
pIC50 (ARK5 [6]): 8.35
pIC50 (LCK): 7.73
pIC50 [7]: 7.92
mice exhibiting tumor regression ([8]; 15 mg/kg/BID orally): 2 of 8
mice exhibiting complete tumor regression ([8]; 75 mg/kg BID orally): 8 of 8
tumor regression (REG) ([8]; 75 mg/kg BID orally): 100%
pIC50 (LTK): 7.66
pIC50 (GRK7): 7.45
pKd (FAK): 7.57
pKd (ARK5 [9]): 8.43
Body weight of the mice ([10]; Ba/F3 CD74-ROS1 G2032R model, 15 and 75 mg/kg BID, 11 days): no body weight loss was observed
Body weight of the mice ([10]; Ba/F3 CD74-ROS1 WT model, 15 and 75 mg/kg BID, 12 days): no body weight loss was observed
Body weight of the mice ([10]; Ba/F3 EML4-ALK G1202R model, 15 and 75 mg/kg BID, 17 days): no body weight loss was observed
Body weight of the mice ([10]; Ba/F3 EML4-ALK WT model, 15 and 75 mg/kg BID, 14 days): no body weight loss was observed
Body weight of the mice ([10]; KM12 model Example 13, 15 and 75 mg/kg BID, seven days): No loss of body weight
Body weight of the mice ([10]; KM12 model Example 15, 1, 3 and 15 mg/kg BID, seven days): No loss of body weight
Body weight of the mice ([10]; Karpas 299 model, 15 and 50 mg/kg BID, seven days): no body weight loss was observed
Body weight of the mice ([10]; NIH3T3 EML4-ALK WT model, 15 and 50 mg/kg BID, 12 days): no body weight loss was observed
Body weight of the mice ([10]; NIH3T3 LMNA-TRKA G595R model, 3, 15 and 60 mg/kg BID, five days): no body weight loss was observed
Body weight of the mice ([10]; NIH3T3 LMNA-TRKA WT model, 3 and 15 mg/kg BID, five days): No loss of body weight
pIC50 [11]: 7.01
